Laboratory results reported in article PMC5526570, “In vitro and in vivo anti-inflammatory active copper(II)-lawsone complexes” (PLoS ONE, 2017).
Entries after “also recorded” stand apart in the source; their conditions may differ.

Tests used:
NF-κB = NF-κB activity, secreted alkaline phosphatase reporter in THP1-XBlue-MD2-CD14 cells; assay type: cell-based, human; conditions: 1 h pretreatment, 24 h; for decrease of NF-κB activity stimulated by LPS: LPS 1 μg/mL; for decrease of NF-κB activation induced by Pam3CSK4: Pam3CSK4 100 ng/mL; for decrease of NF-κB activity stimulated by TNF-α: TNF-α 10 ng/mL
Procedure: The THP-1 human monocytic leukemia cell line was obtained from the European Collection of Cell Cultures (ECACC, Salisbury, UK) and THP1-XBlue™-MD2-CD14 cells were purchased from Invivogen (San Diego, USA). The cells were cultivated at 37°C in the RPMI 1640 medium supplemented with 2 mM L-glutamine, 10% FBS, 100 U/mL penicillin, and 100 μg/mL streptomycin in a humidified atmosphere containing 5% CO2. The culture was split twice a week when the cells had reached the concentration of 5–7×10^5 cells/mL. The cell count and viability were determined following staining with erythrosin B. The cells were counted manually using a hemocytometer and a light microscope.
One hundred microliters of the stabilized THP-1 cells (5th-20th passage) were split into 96-well plates to afford the concentration of 5×10^5 cells/mL, and differentiation into macrophages was induced by the addition of phorbol myristate acetate (PMA), as described previously. THP1-XBlue™-MD2-CD14 cells were used without any differentiation due to their stabile expression of MD2 and CD14 co-receptors.
THP1-XBlue™-MD2-CD14 cells were transferred into a serum-free medium at the concentration of 5×10^5 cells/mL. The floated cells were pretreated with the tested compounds (i.e. complexes 1–7, [Cu(Law)2(H2O)2]·0.5H2O, and Hlaw, respectively) and stimulated either by LPS (1 μg/mL), or by the addition of human recombinant TNF-α (10 ng/mL; Invivogen), or by Pam3CSK4 (100 ng/mL; Invivogen), a synthetic triacylated lipoprotein and selective Toll-like receptor 1/2 agonist. After 24 h of the incubation, 20 μL of the cultivation medium was mixed with 180 μL of Quanti-Blue medium and incubated according to the manufacturer’s instructions at 37°C for 2 h. The activity of released alkaline phosphatase, directly proportional to the NF-κB activity, was quantified from the difference in absorbance at 655 nm against the untreated control.

[1] = test system: carrageenan-induced hind paw edema; assay: Carrageenan-induced hind paw edema, plethysmometry; assay type: in vivo, rat; conditions: rats, i.p., dose corresponding to 40 mmol Cu/kg (ca. 20 mg/kg), 30 min before carrageenan, up to 6 h
Procedure: Wistar—SPF (6–8 weeks male) rats were obtained from the AnLab, Ltd., Prague. The animals were kept in plexiglass cages at the constant temperature of 22±1°C, and relative humidity of 55±5% for at least 1 week before the experiment. They were given food and water ad libitum. After a one-week adaptation period, male Wistar-SPF rats (200–250 g) were randomly assigned into ten groups (n = 7) of animals in the study. The first, control group, received 10% DMF (v/v in water, intraperitoneal; i.p.). The next eight groups were pretreated with complexes 1–7 and [Cu(Law)2(H2O)2]·0.5H2O (at the dose corresponding to […] Cu/kg; ca. 20 mg/kg) and involved into the carrageenan-treatment. The last group was treated with a non-steroidal anti-inflammatory drug Indomethacin (5 mg/kg), which served as a positive control (Indomethacin + carrageenan).
The carrageenan-induced hind paw edema model was used for the determination of the anti-inflammatory activity. […] The paw volume was measured immediately after the carrageenan injection and during the next 6 h after the administration of the edematogenic agent using a plethysmometer (model 7159, Ugo Basile, Varese, Italy). The degree of swelling induced was evaluated as the percentage of change in the volume of the right hind paw after the carrageenan treatment from the volume of the right hind paw before the carrageenan treatment.

[2] = test system: PMN infiltration of hind paw tissue; assay: Ex vivo histological evaluation of hind paw tissue (hematoxylin/eosin); assay type: in vivo, rat; conditions: rats, i.p., tissue after 6 h
Excerpt: All the animals were sacrificed by cervical dislocation, and immediately after that, the affected hind paws were separated and underwent the process of dehydration and fixation, and were embedded into paraffin blocks by means of standard protocols. The histopathological changes, like infiltration of different skin elements and deeper laying tissues by the polymorphonuclear white blood cells (dominantly neutrophils and lymphocytes) stained by the standard hematoxylin/eosin staining, were evaluated.

TNF-α = TNF-α secretion in LPS-stimulated THP-1 macrophages (ELISA); assay type: cell-based, human; conditions: 100 nM, 1 h pretreatment, LPS 1 μg/mL, 24 h
Procedure: One hundred microliters of the stabilized THP-1 cells (5th-20th passage) were split into 96-well plates to afford the concentration of 5×10^5 cells/mL, and differentiation into macrophages was induced by the addition of phorbol myristate acetate (PMA), as described previously. […] Whereas the complexes were dissolved in PBS, lawsone was dissolved in DMSO. With respect to the results of cytotoxicity assay, the concentration of 100 nM should not affect the viability of the target cells in any way. For comparative purposes, a conventional drug prednisone was used at the standard dose of 1 μM dissolved in DMSO. Then, the DMSO was added to the rest of the wells. […] Vehicle-treated cells contained a vehicle (0.1% DMSO) only. The TNF-α secretion in the pretreated differentiated THP-1 macrophages was induced by the addition of 1 μg/mL LPS dissolved in sterile water. The basal cytokine expression level was determined in the control cells without the LPS stimulation. LPS triggers an inflammatory response through binding to toll-like receptor 4 (TLR-4) and subsequently activates the NF-κB signaling pathway. The cultivation medium was aspirated 24 h after the LPS addition and the cell residue was removed by centrifugation. The concentration of the secreted TNF-α was determined using the Human TNF-α Instant ELISA kit.

[3] = In vitro cytotoxicity, WST-1 assay, 24 h; assay type: cell-based; conditions: human, THP-1 monocytic leukemia cells
Procedure: The final concentration of the solvent in the culture medium was 0.1% (v/v). The cells were incubated at 37°C with 5% CO2 for 24 h. After the incubation, the cytotoxicity was determined by the Cell Proliferation Reagent WST-1 kit according to the manufacturer´s instructions.

[4] = 100 nM, vs vehicle-treated cells

Molecule: [Cu(Law)2(3-OHpy)2] [compound 6]
- decrease of NF-κB activity stimulated by LPS (NF-κB; [4]): 12%

Molecule: [Cu(Law)2(3-apy)2]·0.5H2O [compound 4]
- decrease of NF-κB activity stimulated by LPS (NF-κB; [4]): 19–24%

Molecule: O=C1C=C([O-])C(=O)c2ccccc21.O=C1C=C([O-])C(=O)c2ccccc21.[Cu+2].c1c[nH]cn1.c1c[nH]cn1 [compound 2, [Cu(Law)2(Im)2]]
- decrease of NF-κB activity stimulated by LPS (NF-κB; [4]): 10%
- decrease of NF-κB activation induced by Pam3CSK4 (NF-κB; 100 nM): no noticeable effect

Molecule: O.O=C1C=C([O-])C(=O)c2ccccc21.O=C1C=C([O-])C(=O)c2ccccc21.[Cu+2].c1ccncc1 [compound 1, [Cu(Law)2(H2O)(py)]]
- antiedematous activity (hind paw swelling) [1]: diminish completely the swelling of the hind paw; also recorded: most active
- decrease of NF-κB activity stimulated by LPS (NF-κB; [4]): did not affect
- decrease of NF-κB activation induced by Pam3CSK4 (NF-κB; 100 nM): no noticeable effect
- PMN infiltration / inflammatory reaction in hind paw tissue ([2]; (ca. 20 mg/kg)): mainly scarce and diffuse

Molecule: [Cu(Law)2(H2O)(2-apy)]·0.5H2O [compound 3]
- decrease of TNF-α expression/secretion in LPS-stimulated cells (TNF-α): greatest potential
- decrease of NF-κB activity stimulated by LPS (NF-κB; [4]): 19–24%
- decrease of NF-κB activation induced by Pam3CSK4 (NF-κB; 100 nM): most efficient

Molecule: COc1ccc2c(c1)c(CC(=O)O)c(C)n2C(=O)c1ccc(Cl)cc1 [indomethacin, reference compound]
- PMN infiltration / inflammatory reaction in hind paw tissue ([2]; 5 mg/kg): mainly scarce and diffuse

Molecule: C[C@]12C=CC(=O)C=C1CC[C@@H]1[C@@H]2C(=O)C[C@@]2(C)[C@H]1CC[C@]2(O)C(=O)CO [prednisone, reference compound]
- decrease of NF-κB activity stimulated by LPS (NF-κB; 1 μM): 26%
- decrease of NF-κB activity stimulated by TNF-α (NF-κB; 1 μM): 37%

Molecule: O=C1C=C(O)C(=O)c2ccccc21 [lawsone, 2-hydroxy-1,4-naphthoquinone]
- decrease of TNF-α expression/secretion in LPS-stimulated cells (TNF-α): 28%
- decrease of NF-κB activity stimulated by LPS (NF-κB; [4]): 19–24%
- decrease of NF-κB activity stimulated by TNF-α (NF-κB; 100 nM): 32%
- viability at 24 h, 10 µM [3]: ~80%

Molecule: [Cu(Law)2(3,5diMePz)2]·0.5H2O [compound 7]
- antiedematous activity (hind paw swelling) [1]: least active
- decrease of NF-κB activity stimulated by LPS (NF-κB; [4]): 19–24%
- PMN infiltration / inflammatory reaction in hind paw tissue ([2]; (ca. 20 mg/kg)): massive presence of PMN cells
